Assays:
Adrenergic receptor beta = Adrenergic receptor beta (Rattus norvegicus, UniProt P18090+P10608+P26255); assay: Compound was tested for the Binding affinity against rat cortical Beta adrenergic receptor by Radio ligand [3H]dihydroalprenolol binding assay.; assay type: protein assay
Histamine H1 receptor = Histamine H1 receptor (Rattus norvegicus, UniProt P31390); assay: Compound was tested for the Binding affinity against rat cortical H1 receptor by Radio ligand [3H]pyrilamine binding assay
Sequence of Histamine H1 receptor (P31390 whole entry): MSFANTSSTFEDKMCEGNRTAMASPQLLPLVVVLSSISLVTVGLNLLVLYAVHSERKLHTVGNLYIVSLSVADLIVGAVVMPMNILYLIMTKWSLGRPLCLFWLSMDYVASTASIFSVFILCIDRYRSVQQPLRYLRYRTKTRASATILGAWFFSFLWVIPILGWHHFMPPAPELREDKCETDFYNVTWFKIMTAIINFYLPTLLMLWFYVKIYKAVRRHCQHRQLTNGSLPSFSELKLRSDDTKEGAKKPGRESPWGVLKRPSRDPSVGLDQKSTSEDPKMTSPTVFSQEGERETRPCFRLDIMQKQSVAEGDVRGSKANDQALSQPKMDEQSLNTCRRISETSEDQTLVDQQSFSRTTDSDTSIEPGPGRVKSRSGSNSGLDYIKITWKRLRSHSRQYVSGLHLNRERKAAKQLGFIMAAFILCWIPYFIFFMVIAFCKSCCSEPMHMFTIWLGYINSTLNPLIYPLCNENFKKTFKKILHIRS

D(1A) dopamine receptor = D(1A) dopamine receptor (Homo sapiens, UniProt P21728); assay: Compound was tested for the Binding affinity against Human cloned Dopamine receptor D1 by Radio ligand ([3H]SCH-23390) binding assay
Sequence of D(1A) dopamine receptor (P21728 whole entry): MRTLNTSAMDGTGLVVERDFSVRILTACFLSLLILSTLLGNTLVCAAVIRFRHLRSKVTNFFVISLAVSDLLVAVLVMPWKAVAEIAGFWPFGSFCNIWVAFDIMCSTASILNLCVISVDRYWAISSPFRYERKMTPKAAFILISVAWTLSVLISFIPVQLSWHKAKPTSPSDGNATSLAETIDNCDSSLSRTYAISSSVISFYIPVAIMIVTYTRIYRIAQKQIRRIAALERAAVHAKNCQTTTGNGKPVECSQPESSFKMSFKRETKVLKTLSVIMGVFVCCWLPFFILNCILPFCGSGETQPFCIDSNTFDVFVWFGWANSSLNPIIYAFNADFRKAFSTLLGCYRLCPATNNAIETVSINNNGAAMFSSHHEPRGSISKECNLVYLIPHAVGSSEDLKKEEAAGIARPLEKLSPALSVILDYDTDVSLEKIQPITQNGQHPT

[1] = target: T1, Adrenergic receptor alpha-2 (Rattus norvegicus, UniProt P22086+P19328+P22909); assay: Compound was tested for the Binding affinity against rat cortical Alpha-2 adrenergic receptor by Radio ligand ([3H]-Rx-821002) binding assay; assay type: protein assay
T1 sequence (P22086 whole entry): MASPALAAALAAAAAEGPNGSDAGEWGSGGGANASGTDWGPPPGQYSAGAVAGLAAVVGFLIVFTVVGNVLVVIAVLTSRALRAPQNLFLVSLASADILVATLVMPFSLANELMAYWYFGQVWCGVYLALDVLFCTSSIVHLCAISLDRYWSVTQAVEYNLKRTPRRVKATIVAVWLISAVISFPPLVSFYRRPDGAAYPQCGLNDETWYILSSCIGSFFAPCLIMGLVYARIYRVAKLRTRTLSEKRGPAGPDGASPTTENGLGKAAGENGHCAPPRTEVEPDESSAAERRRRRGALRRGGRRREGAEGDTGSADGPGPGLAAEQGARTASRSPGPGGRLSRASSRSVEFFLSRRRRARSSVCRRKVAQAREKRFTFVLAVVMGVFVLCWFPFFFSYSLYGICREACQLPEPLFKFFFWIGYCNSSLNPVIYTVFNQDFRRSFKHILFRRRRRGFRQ
T1 sequence (P19328 whole entry): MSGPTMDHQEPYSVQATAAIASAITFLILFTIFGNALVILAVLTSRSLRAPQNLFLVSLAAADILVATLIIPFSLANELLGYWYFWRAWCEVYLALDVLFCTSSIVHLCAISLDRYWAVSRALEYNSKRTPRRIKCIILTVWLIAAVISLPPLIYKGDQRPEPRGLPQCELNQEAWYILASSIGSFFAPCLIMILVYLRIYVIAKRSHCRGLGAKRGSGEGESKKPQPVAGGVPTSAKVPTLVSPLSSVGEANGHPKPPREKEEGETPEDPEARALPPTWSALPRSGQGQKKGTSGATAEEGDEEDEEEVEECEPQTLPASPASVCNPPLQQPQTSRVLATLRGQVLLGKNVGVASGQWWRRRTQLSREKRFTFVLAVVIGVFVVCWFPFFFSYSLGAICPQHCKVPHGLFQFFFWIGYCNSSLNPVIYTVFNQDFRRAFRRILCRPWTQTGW
T1 sequence (P22909 whole entry): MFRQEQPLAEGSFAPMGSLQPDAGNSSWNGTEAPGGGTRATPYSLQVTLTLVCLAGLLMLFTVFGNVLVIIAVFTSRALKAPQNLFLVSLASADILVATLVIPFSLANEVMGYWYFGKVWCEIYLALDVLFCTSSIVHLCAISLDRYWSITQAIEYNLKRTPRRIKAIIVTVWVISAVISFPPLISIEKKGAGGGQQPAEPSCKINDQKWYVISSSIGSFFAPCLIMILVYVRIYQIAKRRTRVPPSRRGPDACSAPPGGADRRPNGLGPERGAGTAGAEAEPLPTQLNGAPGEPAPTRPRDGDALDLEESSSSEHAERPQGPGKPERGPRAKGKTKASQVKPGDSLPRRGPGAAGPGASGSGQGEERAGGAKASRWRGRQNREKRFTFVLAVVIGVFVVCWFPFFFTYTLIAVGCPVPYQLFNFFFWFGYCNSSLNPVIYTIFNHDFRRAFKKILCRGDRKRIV

D(3) dopamine receptor = D(3) dopamine receptor (Rattus norvegicus, UniProt P19020); assay: biochemical
Sequence of D(3) dopamine receptor (P19020 whole entry): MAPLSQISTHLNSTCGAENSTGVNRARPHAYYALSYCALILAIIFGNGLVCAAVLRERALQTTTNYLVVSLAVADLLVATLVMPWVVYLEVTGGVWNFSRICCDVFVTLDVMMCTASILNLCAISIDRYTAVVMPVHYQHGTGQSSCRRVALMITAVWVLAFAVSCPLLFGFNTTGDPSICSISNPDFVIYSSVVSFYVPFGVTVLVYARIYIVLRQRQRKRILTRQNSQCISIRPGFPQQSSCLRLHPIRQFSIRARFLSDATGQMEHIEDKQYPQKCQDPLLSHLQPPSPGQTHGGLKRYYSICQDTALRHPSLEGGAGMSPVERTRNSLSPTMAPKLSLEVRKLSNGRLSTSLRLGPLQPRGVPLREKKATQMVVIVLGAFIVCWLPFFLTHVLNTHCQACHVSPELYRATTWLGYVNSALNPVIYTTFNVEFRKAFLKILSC
Description: Binding affinity to rat Dopamine receptor D3 expressed in CHO cells was determined using [125 I] iodosulpride as radioligand

D(4) dopamine receptor = target: T2, D(4) dopamine receptor (Homo sapiens, UniProt P21917); assay: biochemical
T2 sequence (P21917 whole entry): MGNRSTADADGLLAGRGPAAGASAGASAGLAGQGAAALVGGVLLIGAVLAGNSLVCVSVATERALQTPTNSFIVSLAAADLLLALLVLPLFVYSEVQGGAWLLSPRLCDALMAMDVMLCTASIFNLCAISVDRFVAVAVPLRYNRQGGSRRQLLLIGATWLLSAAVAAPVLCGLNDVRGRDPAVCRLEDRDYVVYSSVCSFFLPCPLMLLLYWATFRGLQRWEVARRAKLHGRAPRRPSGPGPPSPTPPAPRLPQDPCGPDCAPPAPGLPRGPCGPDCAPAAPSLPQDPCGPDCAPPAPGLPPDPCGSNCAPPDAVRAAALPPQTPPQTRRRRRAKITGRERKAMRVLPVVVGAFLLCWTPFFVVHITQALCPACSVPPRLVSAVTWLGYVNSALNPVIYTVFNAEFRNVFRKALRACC

[2] = target: T3, Muscarinic acetylcholine receptor M1 (Rattus norvegicus, UniProt P08482); assay: Compound was tested for the Binding affinity against rat cortical Muscarinic acetylcholine receptor M1 by Radio ligand [3H]pirenzepine binding assay
T3 sequence (P08482 whole entry): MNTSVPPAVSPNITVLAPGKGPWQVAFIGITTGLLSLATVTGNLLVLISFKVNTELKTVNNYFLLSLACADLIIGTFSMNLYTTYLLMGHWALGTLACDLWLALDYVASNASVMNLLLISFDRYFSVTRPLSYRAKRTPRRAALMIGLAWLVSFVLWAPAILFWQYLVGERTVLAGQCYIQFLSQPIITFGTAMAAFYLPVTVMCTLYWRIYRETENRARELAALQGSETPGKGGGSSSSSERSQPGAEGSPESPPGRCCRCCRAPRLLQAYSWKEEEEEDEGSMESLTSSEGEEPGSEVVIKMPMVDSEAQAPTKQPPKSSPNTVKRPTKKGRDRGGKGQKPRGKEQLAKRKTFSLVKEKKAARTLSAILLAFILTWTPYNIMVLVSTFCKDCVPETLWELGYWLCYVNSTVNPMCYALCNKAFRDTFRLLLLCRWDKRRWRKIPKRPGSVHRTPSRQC

- Ki (Adrenergic receptor beta): > 10 µM
- Ki (Histamine H1 receptor): > 10 µM
- Ki (D(1A) dopamine receptor): > 10 µM
- Ki [1]: 4.3 µM
- Ki (D(3) dopamine receptor): 0.021 µM
- Ki (D(4) dopamine receptor): 0.0021 µM
- Ki [2]: 5.4 µM
Compound: COc1cc(NC(=O)C2CC2)c(Cl)cc1C(=O)N[C@H]1CCN(Cc2ccccc2)C1

From ChEMBL document CHEMBL1129789, “Dopamine D3 and D4 receptor antagonists: synthesis and structure--activity relationships of (S)-(+)-N-(1-Benzyl-3-pyrrolidinyl)-5-chloro-4- [(cyclopropylcarbonyl) amino]-2-methoxybenzamide (YM-43611) and related compounds” (J Med Chem, 1996)
